Assay results taken from PubChem BioAssay AID2060895 (Molecular Pharmacology Branch, DTP, NCI, 2025).

Test system: PDC 899932-113-R3-J6 complex spheroid viability
Assay: Anticancer human tumor 899932-113-R3-J6-PDC patient-derived melanoma cell line growth inhibition [RAS]
Details: for IC50: curve of first compound; for viability, T/C: stronger effect = lower value; active = viability on the fitted dose curve at most 10% of control; inactive = the rest
Source text: RAS pathway inhibitors in Combinations in Complex Spheroids
A high-throughput screen of multi-cell type tumor spheroids was designed to identify active combinations of RAS pathway inhibitors and targeted small molecules. Complex spheroids include a stromal component modeled by human endothelial cells (HUVEC) and fibroblasts modeled by human mesenchymal stem cells (MSCs). The concentration ranges selected for each drug and investigational agent were based upon clinically achievable concentrations if the clinical Cmax of the agent was known.
Compounds. The drugs and investigational agents: abemaciclib (NSC768073), cobimetinib (NSC768068), divarasib (GDC6063, NSC841802), docetaxel (NSC628503), GDC-1971 (RLY-1971, NSC841576), gemcitabine (NSC613327), inavolisib (NSC800729), ipatasertib (NSC767898), KB-0742 (NSC834161), MRTX-1133 (NSC836407), osimertinib (NSC779217), RMC-4630 (NSC839698), RMC-6236 (NSC851965), RMC-6291 (NSC852671), Ro-3306 (NSC812927), sapanisertib (NSC764658), SN-38 (NSC673596), staurosporine (NSC755774), SY5609 (NSC837396), and tovorafenib (DAY101, NSC766906), were obtained from the National Cancer Institute (NCI) Developmental Therapeutics Program Chemical Repository. The FDA-approved anticancer drug set is available from the NCI Developmental Therapeutics Program. […] The stock solutions were prepared in dimethyl sulfoxide (DMSO, Sigma-Aldrich, St. Louis, MO, cat. D2650) at 800-fold the tested concentration and stored at -70 degrees C prior to their use. All drugs and investigational agents were tested over a range starting from a high concentration at or near the clinical Cmax and decreasing in half-log increments. If the clinical Cmax for an agent had not been determined, the highest concentration tested was 10 microM.
Cell Culture. All cells were maintained in an incubator at 37 degrees C and 5% CO2 with 95% humidity. The PDC lines were cultured according to standard operating procedures established by the NCI PDMR. All PDCs were thawed and cultured in Matrigel-coated flasks prepared with a working solution of 1X Ham's F-12 nutrient mix, without supplementation (Invitrogen, Waltham, MA, cat. 11765054), 100 U/mL penicillin-streptomycin (Invitrogen, cat. 15140122), and 2.5% Matrigel (Corning Inc., Corning, NY, cat. 354248) for the first three passages. The 362531-283-R-J2-PDC and 782815-120-R-J1-PDC lines were cultured in 6C/Colon 1B media, which includes advanced DMEM/F-12 (Thermo Fisher Scientific, cat. 12634028), 10 mM HEPES (Thermo Fisher Scientific, cat. 15630080), 1X GlutaMAX supplement (Thermo Fisher Scientific, cat. 35050061), 0.1 mg/mL primocin (InvivoGen, San Diego, CA, cat. ant-pm-2), 10% defined fetal bovine serum, heat inactivated (HyClone Laboratories Inc., Logan, UT, cat. SH30070.03HI), 50% L-WRN conditioned media (ATCC, cat. CRL-3276), 1.25 mM N-Acetyl-L-cysteine (Sigma-Aldrich, cat. A9165), 10 mM nicotinamide (Sigma-Aldrich, cat. N0636), 1X B-27 supplement (Thermo Fisher Scientific, cat. 17504044), 1X N-2 supplement (Thermo Fisher Scientific, cat. 17502048), 50 ng/mL human EGF (Thermo Fisher Scientific, cat. PHG0311), and 10 microM Y-27632 dihydrochloride (Tocris Bioscience, cat. 1254). The K12877-001-R-J1-PDC line was cultured in 6I media, which includes all 6C/Colon 1B media plus 10 ng/mL human FGF-10 (PeproTech, cat. 100-26), 1 ng/mL human FGF-2 (PeproTech, cat. 100-18B), 1 µM prostaglandin E2 (Tocris Bioscience, cat. 2296), […] hydrocortisone (Sigma-Aldrich, cat. H4001), and […] bovine insulin (Sigma-Aldrich, cat. I6634). The K86415-001-R-J1-PDC line was cultured in 6D media, which includes all 6C/Colon 1B media components minus the L-WRN conditioned media. The 485176-168-R4-J1-PDC was cultured in PANC media, which includes all 6C/Colon 1B media plus 100 ng/mL human FGF-10 (PeproTech, cat. 100-26), 500 nM SB-431542 (Selleckchem, cat. S1067), and 10 nM gastrin (Tocris Bioscience, cat. 3006). […]

[1] = second compound 0.0316 µM, first compound 0.00316 µM
[2] = second compound 0.0316 µM, first compound 0.01 µM
[3] = second compound 0.0316 µM, first compound 0.0316 µM
[4] = second compound 0.0316 µM, first compound 0.1 µM
[5] = second compound 0.0316 µM, first compound 0.316 µM
[6] = second compound 0.0316 µM, first compound 1 µM
[7] = second compound 0.1 µM, first compound 0.00316 µM
[8] = second compound 0.1 µM, first compound 0.01 µM
[9] = second compound 0.1 µM, first compound 0.0316 µM
[10] = second compound 0.1 µM, first compound 0.1 µM
[11] = second compound 0.1 µM, first compound 0.316 µM
[12] = second compound 0.1 µM, first compound 1 µM
[13] = second compound 0.316 µM, first compound 0.00316 µM
[14] = second compound 0.316 µM, first compound 0.01 µM
[15] = second compound 0.316 µM, first compound 0.0316 µM
[16] = second compound 0.316 µM, first compound 0.1 µM
[17] = second compound 0.316 µM, first compound 0.316 µM
[18] = second compound 0.316 µM, first compound 1 µM
[19] = second compound 1 µM, first compound 0.00316 µM
[20] = second compound 1 µM, first compound 0.01 µM
[21] = second compound 1 µM, first compound 0.0316 µM
[22] = second compound 1 µM, first compound 0.1 µM
[23] = second compound 1 µM, first compound 0.316 µM
[24] = second compound 1 µM, first compound 1 µM
[25] = second compound 3.16 µM, first compound 0.00316 µM
[26] = second compound 3.16 µM, first compound 0.01 µM
[27] = second compound 3.16 µM, first compound 0.0316 µM
[28] = second compound 3.16 µM, first compound 0.1 µM
[29] = second compound 3.16 µM, first compound 0.316 µM
[30] = second compound 3.16 µM, first compound 1 µM
[31] = second compound 10 µM, first compound 0.00316 µM
[32] = second compound 10 µM, first compound 0.01 µM
[33] = second compound 10 µM, first compound 0.0316 µM
[34] = second compound 10 µM, first compound 0.1 µM
[35] = second compound 10 µM, first compound 0.316 µM
[36] = second compound 10 µM, first compound 1 µM
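For viability, T/C in this document: spheroids exposed to agents for seven days before readout; 100% = DMSO vehicle control wells.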

C=CC(=O)Nc1cc(Nc2nccc(-c3cn(C)c4ccccc34)n2)c(OC)cc1N(C)CCN(C)C + C#Cc1c(F)ccc2cc(O)cc(-c3ncc4c(N5CC6CCC(C5)N6)nc(OCC56CCCN5CC(F)C6)nc4c3F)c12
> 1 µM: IC50 (second compound 0.0316 µM) | IC50 (second compound 0.1 µM) | IC50 (second compound 0.316 µM) | IC50 (second compound 1 µM) | IC50 (second compound 3.16 µM) | IC50 (second compound 10 µM)
inactive: viability, T/C [1] 117% | viability, T/C [2] 110% | viability, T/C [3] 109% | viability, T/C [4] 103% | viability, T/C [5] 110% | viability, T/C [6] 95.6% | viability, T/C [7] 103% | viability, T/C [8] 107% | viability, T/C [9] 106% | viability, T/C [10] 100% | viability, T/C [11] 113% | viability, T/C [12] 103% | viability, T/C [13] 111% | viability, T/C [14] 106% | viability, T/C [15] 106% | viability, T/C [16] 107% | viability, T/C [17] 111% | viability, T/C [18] 104% | viability, T/C [19] 114% | viability, T/C [20] 113% | viability, T/C [21] 119% | viability, T/C [22] 122% | viability, T/C [23] 105% | viability, T/C [24] 115% | viability, T/C [25] 115% | viability, T/C [26] 116% | viability, T/C [27] 114% | viability, T/C [28] 117% | viability, T/C [29] 112% | viability, T/C [30] 114% | viability, T/C [31] 123% | viability, T/C [32] 118% | viability, T/C [33] 110% | viability, T/C [34] 128% | viability, T/C [35] 120% | viability, T/C [36] 93.7%

CC(Nc1ccc2c(c1)OCCn1cc(N3C(=O)OCC3C(F)F)nc1-2)C(N)=O (stereo unspecified) + C#Cc1c(F)ccc2cc(O)cc(-c3ncc4c(N5CC6CCC(C5)N6)nc(OCC56CCCN5CC(F)C6)nc4c3F)c12
4.56 µM: IC50 (second compound 3.16 µM)
2.76 µM: IC50 (second compound 10 µM)
inactive: viability, T/C [3] 88.4% | viability, T/C [4] 87.2% | viability, T/C [5] 58.2% | viability, T/C [6] 58% | viability, T/C (second compound 0.0316 µM, first compound 3.16 µM) 47.4% | viability, T/C (second compound 0.0316 µM, first compound 10 µM) 30.6% | viability, T/C [9] 88.8% | viability, T/C [10] 78.6% | viability, T/C [11] 70.1% | viability, T/C [12] 57.3% | viability, T/C (second compound 0.1 µM, first compound 3.16 µM) 51.7% | viability, T/C (second compound 0.1 µM, first compound 10 µM) 35.1% | viability, T/C [15] 97.7% | viability, T/C [16] 83.3% | viability, T/C [17] 66% | viability, T/C [18] 63.5% | viability, T/C (second compound 0.316 µM, first compound 3.16 µM) 49.2% | viability, T/C (second compound 0.316 µM, first compound 10 µM) 33.8% | viability, T/C [21] 93% | viability, T/C [22] 76% | viability, T/C [23] 64.9% | viability, T/C [24] 61.5% | viability, T/C (second compound 1 µM, first compound 3.16 µM) 44.2% | viability, T/C (second compound 1 µM, first compound 10 µM) 39.8% | viability, T/C [27] 101% | viability, T/C [28] 76.6% | viability, T/C [29] 71.4% | viability, T/C [30] 65% | viability, T/C (second compound 3.16 µM, first compound 3.16 µM) 60.9% | viability, T/C (second compound 3.16 µM, first compound 10 µM) 38% | viability, T/C [33] 102% | viability, T/C [34] 90% | viability, T/C [35] 70% | viability, T/C [36] 63.9% | viability, T/C (second compound 10 µM, first compound 3.16 µM) 52.5% | viability, T/C (second compound 10 µM, first compound 10 µM) 32.5%
2.61 µM: IC50 (second compound 0.1 µM)
2.44 µM: IC50 (second compound 0.316 µM)
1.78 µM: IC50 (second compound 0.0316 µM)
2.24 µM: IC50 (second compound 1 µM)

O=C(c1ccc(F)c(F)c1Nc1ccc(I)cc1F)N1CC(O)([C@@H]2CCCCN2)C1 + C#Cc1c(F)ccc2cc(O)cc(-c3ncc4c(N5CC6CCC(C5)N6)nc(OCC56CCCN5CC(F)C6)nc4c3F)c12
0.0108 µM: IC50 (second compound 3.16 µM)
0.0101 µM: IC50 (second compound 0.1 µM)
0.0109 µM: IC50 (second compound 1 µM)
inactive: viability, T/C [1] 84.7% | viability, T/C [2] 46.4% | viability, T/C [7] 70.8% | viability, T/C [8] 50.3% | viability, T/C [13] 77.1% | viability, T/C [14] 58.5% | viability, T/C [19] 83.2% | viability, T/C [20] 53.4% | viability, T/C [25] 77.6% | viability, T/C [26] 53.1% | viability, T/C [31] 91.4% | viability, T/C [32] 46%
0.00897 µM: IC50 (second compound 0.0316 µM)
0.0121 µM: IC50 (second compound 0.316 µM)
active: viability, T/C [3] 7.85% | viability, T/C [4] 3.11% | viability, T/C [5] 3.11% | viability, T/C [6] 1.68% | viability, T/C [9] 7.58% | viability, T/C [10] 3.19% | viability, T/C [11] 2.68% | viability, T/C [12] 1.61% | viability, T/C [15] 6.51% | viability, T/C [16] 5.25% | viability, T/C [17] 2.94% | viability, T/C [18] 1.38% | viability, T/C [21] 7.2% | viability, T/C [22] 3.22% | viability, T/C [23] 2.12% | viability, T/C [24] 2.67% | viability, T/C [27] 8.19% | viability, T/C [28] 3.45% | viability, T/C [29] 2.09% | viability, T/C [30] 3.3% | viability, T/C [33] 8.65% | viability, T/C [34] 6.24% | viability, T/C [35] 2.33% | viability, T/C [36] 2.35%
0.00902 µM: IC50 (second compound 10 µM)
